US7049292B2, “Therapeutically effective peptides related to preproinsulin” (King's College London, priority 2004, dated 2006)
Several values for one entry are separate records, joined by “and”; a condition that tells them apart may be missing. Identical values can stand only once. Like-named read-outs stand apart in the source and are kept apart here. Ends that are not written are not given here.

Key:
[1] = tested on: pathogenic (IFN-γ) CD4+ T lymphocytes in PBMCs; assay: IFN-γ ELISPOT analysis of PBMCs cultured with peptide; assay type: cell-based, human; conditions: for Prevalence of IFN-γ responses, Totals (%) / Prevalence of IFN-γ responses, Totals (responders/tested): positive response SI≧3.0; for IFN-γ response, stimulation index (SI): PBMCs, peptide 10 μM
[2] = tested on: anti-inflammatory (IL-10 secreting) CD4+ T lymphocytes in PBMCs; assay type: cell-based, human; conditions: for IL-10 response, stimulation index (SI): PBMCs, peptide 10 μM
[3] = T1DM patients with HLA-DR4 alleles
[4] = T1DM patients with non-DR4 alleles
[5] = patient #3, T1DM with HLA-DR4 alleles
[6] = patient #10, T1DM with HLA-DR4 alleles
[7] = patient #12, T1DM with HLA-DR4 alleles
[8] = patient #26, T1DM with non-DR4 alleles
[9] = non-diabetic control subject C8
[10] = patient #27, T1DM with non-DR4 alleles

Sequence	Prevalence of IFN-γ responses, Totals (%) [1, 3]	Prevalence of IFN-γ responses, Totals (responders/tested) [1, 3]	Prevalence of IFN-γ responses, Totals (%) [1, 4]	Prevalence of IFN-γ responses, Totals (responders/tested) [1, 4]	Prevalence of IFN-γ responses, Totals (%) ([1]; non-diabetic control subjects)	Prevalence of IFN-γ responses, Totals (responders/tested) ([1]; non-diabetic control subjects)	IFN-γ response, stimulation index (SI) [1, 5]	IFN-γ response, stimulation index (SI) [1, 6]	IFN-γ response, stimulation index (SI) [1, 7]	IFN-γ response, stimulation index (SI) [1, 8]	IL-10 response, stimulation index (SI) [2, 9]	IL-10 response, stimulation index (SI) [2, 5]	IL-10 response, stimulation index (SI) [2, 10]	also measured
GSLQPLALEGSLQKRGIV [C19-A3]	(47) %	8/17	(38) %	3/8	(0) %	0/14	10.7	5.0	10.7	3.3	29.0	10.21	7.0	IFN-γ response, stimulation index (SI) ([1]; patient #4, T1DM with HLA-DR4 alleles): 3.5; IFN-γ response, stimulation index (SI) ([1]; patient #6, T1DM with HLA-DR4 alleles): 63.6; IFN-γ response, stimulation index (SI) ([1]; patient #8, T1DM with HLA-DR4 alleles): 3.0; IFN-γ response, stimulation index (SI) ([1]; patient #9, T1DM with HLA-DR4 alleles): 4.6; IFN-γ response, stimulation index (SI) ([1]; patient #11, T1DM with HLA-DR4 alleles): 3.3; IFN-γ response, stimulation index (SI) ([1]; patient #28, T1DM with non-DR4 alleles): 5.0; IFN-γ response, stimulation index (SI) ([1]; patient #30, T1DM with non-DR4 alleles): 5.7; Prevalence of IL-10 responses, Totals (responders/tested) [2]: 1/12 and 2/5; IL-10 response, stimulation index (SI) ([2]; non-diabetic control subject C5): 10.3; IL-10 response, stimulation index (SI) ([2]; non-diabetic control subject C13): 5.0; Prevalence of IL-10 responses, Totals (responders/tested) ([2]; non-diabetic control subjects, positive response SI≧3.0): 3/13; IL-10 response, stimulation index (SI) ([2]; patient #33, T1DM with non-DR4 alleles): 3.1
KLKVESSPSRSDYINASPIIEHDP [752–75, IA-2 peptide eluted from HLA-DR4]	(32) %	8/25	(9) %	1/11	(0) %	0/14	4.3	12.3	3.3	3.0	16.0	16.0	33.0	IFN-γ response, stimulation index (SI) ([1]; patient #13, T1DM with HLA-DR4 alleles): 3.4; IFN-γ response, stimulation index (SI) ([1]; patient #19, T1DM with HLA-DR4 alleles): 7.0; IFN-γ response, stimulation index (SI) ([1]; patient #20, T1DM with HLA-DR4 alleles): 3.9; IFN-γ response, stimulation index (SI) ([1]; patient #23, T1DM with HLA-DR4 alleles): 3.6; Prevalence of IL-10 responses, Totals (responders/tested) ([2]; T1DM patients with HLA-DR4 alleles, positive response SI≧3.0): 3/17; Prevalence of IL-10 responses, Totals (responders/tested) ([2]; listed as 725–75): 2/7 and 2/14; IL-10 response, stimulation index (SI) ([2]; non-diabetic control subject C3): 8.7; IL-10 response, stimulation index (SI) [2, 7]: 3.79; IL-10 response, stimulation index (SI) ([2]; patient #24, T1DM with HLA-DR4 alleles): 15.0; IL-10 response, stimulation index (SI) ([2]; patient #35, T1DM with non-DR4 alleles): 4.0
